Where “and” joins values, the source holds several entries; their conditions need not be identical. Identical values can stand only once. Like-named read-outs stand apart in the source and are kept apart here.
Columns and labels:
[1] = Octanol/water partition coefficient (Kow), shared-headspace method; type: physicochemical; details: 25 °C; shared-headspace method (SH)
Protocol: Kow was measured for nine PFAS (Table 2) to supplement the data set for descriptor determination. The nine PFAS were selected based on measurement feasibility and structural diversity. The shared-headspace or batch partition method was used as described previously.[5] Details of the methods are given in SI-1.

[2] = PP-LFER solute descriptor determination from GC retention and partition coefficient data; type: physicochemical; details: for Solute descriptor S (dipolarity/polarizability parameter): final adjusted value, shared within a PFAS group
Excerpt: The GC columns used were, from low to high polarity, HP-5ms Ultra Inert (poly[5% phenyl/95% methyl]siloxane equivalent; Agilent Technologies, Santa Clara, CA), DB-200 (poly[35% trifluoropropyl/65% methyl]siloxane; Agilent Technologies), DB-225ms (poly[50% cyanopropylphenyl/50% methyl]siloxane equivalent; Agilent Technologies), and SolGel-WAX (polyethylene glycol; Trajan, Ringwood, Australia). Column dimensions were all 30 m × 0.25 mm i.d. with a coating thickness of 0.25 μm.
The method for GC retention time measurements follows that of a previous study.[18] Briefly, a 7890A/5975C GC/MS instrument (Agilent Technologies) equipped with an MPS2 autosampler and CIS4 injector (Gerstel, Mülheim an der Ruhr, Germany) was used for all measurements. For each column, isothermal retention times were measured at four temperatures in the range of 30–120 °C to cover all target compounds. The temperature at the injector and transfer line was fixed at 120 °C. The carrier gas was He at a flow rate of 1.2 mL/min. Compounds were introduced into the GC by injecting either headspace (100–250 μL) above the pure compound or solution in acetone (1 μL). Split injections were performed with a split ratio of 20–250. Column dead time (t0) was determined by injecting air and measuring Ar (m/z 40). From the measured retention time (t), the retention factor (k) was calculated as k = (t–t0)/t0. Measurements with t < t0 + 0.1 min were considered too short and discarded. For each column and temperature, k values were obtained for 29–52 PFAS and 29–48 reference compounds.
The standard procedure for solute descriptor determination was as follows. First, the system parameters in eq 1 were calibrated for each column (or partition system) and temperature by MLR using log k (or log K) data and solute descriptors for reference compounds. Dimethylformamide, 1-pentylamine, dimethylsulfoxide, and dodecamethylcyclohexasiloxane (D6) were removed from the log k data sets, because they frequently appeared as outliers (>3 SD) of the PP-LFER model fit. Reference data sets for hexadecane/water partition coefficients (KHxd/w),[21]Kow,[22] and octanol/air partition coefficients (Koa)[23] were taken from the cited references and amended with data for organosilicon compounds.[24],[25] Similar to PFAS, organosilicon compounds have weak van der Waals interaction properties[9] and it may be beneficial to include them in reference data sets. The solute descriptors for PFAS were then back-calculated by using the calibrated PP-LFER equations. Of the five descriptors, V can be calculated from the molecular structure[26] (note: the fragment value for F from Goss et al.[11] was used), and L was available for the PFAS studied.[18] Thus, the left side of eq 2 was known, and MLR was performed to obtain S, A, and B on the right side. [drawing 2] 2 To determine the three descriptors, a minimum of three k and K data are required for a given PFAS compound. The data used here were: k measured for 60 PFAS in this study, KHxd/w for 21 PFAS,[5]Kow for 12 PFAS (see the Results and Discussion section), and Koa for 3 PFAS.[11]
Key to the accurate determination of the polar interaction descriptors is the availability of K data for partition systems with water as a partition phase because water is a strong H-bond donor and acceptor phase and thus the corresponding K values are sensitive to the H-bonding properties of the solute.[27] In particular, at least one solvent/water or air/water partition coefficient is required to determine B because there is no commonly used GC phase that is a significant H-bond donor. In the data set, KHxd/w is sensitive to both A and B and Kow is sensitive to B. However, KHxd/w and Kow data are not available for all PFAS. To increase the number of PFAS for which descriptors can be determined, the following assumptions were made. […]

[3] = 25 °C, updated in the iterative calculation

| Compound | Measured Log Kow, Mean ± SD [1] | Solute descriptor L (logarithmic hexadecane/air partition coefficient, KHxd/air) [2, 3] | Solute descriptor S (dipolarity/polarizability parameter) [2] | Solute descriptor L (logarithmic hexadecane/air partition coefficient, KHxd/air) [2] |
| --- | --- | --- | --- | --- |
| OCCCC(F)(F)C(F)(F)C(F)(F)F [3:3 FTOH, 4,4,5,5,6,6,6-Heptafluorohexan-1-ol] | 2.46 ± 0.00 | 2.710 | 0.53 |  |
| OCCCCC(F)(F)C(F)(F)C(F)(F)C(F)(F)F [4:4 FTOH, 5,5,6,6,7,7,8,8,8-Nonafluorooctan-1-ol] | 3.54 ± 0.00 | 3.499 | 0.52 |  |
| CC(O)C(F)(F)C(F)(F)C(F)(F)C(F)(F)C(F)(F)F (stereo not shown) [5:2s FTOH, 1H,1H,1H,2H-Perfluoroheptan-2-ol] | 3.80 ± 0.03 | 2.296 | 0.39 and 0.39 ± 0.02 |  |
| FC(F)(F)C(F)(F)C(F)(F)C(F)(F)C(F)(F)C(F)(F)CI [6:1 FTI, 1H,1H-Perfluoroheptyl iodide] | 5.57 ± 0.01 | 3.382 and 3.38 | 0.27 and 0.27 ± 0.02 |  |
| FC(F)C(F)(F)C(F)(F)C(F)(F)C(F)(F)C(F)(F)CI [6:1 FTI-7H, 1H,1H,7H-Perfluoroheptyl iodide] | 4.90 ± 0.01 | 3.887 and 3.89 | 0.63 and 0.63 ± 0.04 |  |
| FC(F)(F)C(F)(I)OC(F)(F)C(F)(F)C(F)(F)F (stereo not shown) [FE-E1-I, 1-(Heptafluoropropoxy)-1,2,2,2-tetrafluoro-1-iodoethane] |  | 1.937 | 0.06 |  |
| FC(OC(F)(F)C(F)(OC(F)(F)C(F)(OC(F)(F)C(F)(F)C(F)(F)F)C(F)(F)F)C(F)(F)F)C(F)(F)F (stereo not shown) [FE-E3, 1,1,1,2,2,3,3-Heptafluoro-3-[(1,1,1,2,3,3-hexafluoro-3-{[1,1,1,2,3,3-hexafluoro-3-(1,2,2,2-tetrafluoroethoxy)-2-propanyl]oxy}-2-propanyl)oxy]propane] |  |  | -0.33 | 1.899 |
| FC(OC(F)(F)C(F)(OC(F)(F)C(F)(OC(F)(F)C(F)(OC(F)(F)C(F)(F)C(F)(F)F)C(F)(F)F)C(F)(F)F)C(F)(F)F)C(F)(F)F (stereo not shown) [FE-E4, 1,1,1,2,4,4,5,7,7,8,10,10,11,13,13,14,14,15,15 ,15-Eicosafluoro-5,8,11-tris(trifluoromethyl)-3,6,9,12-tetraoxapentadecane] |  |  | -0.55 | 2.542 |
| FC(OC(F)(F)C(F)(OC(F)(F)C(F)(OC(F)(F)C(F)(OC(F)(F)C(F)(OC(F)(F)C(F)(F)C(F)(F)F)C(F)(F)F)C(F)(F)F)C(F)(F)F)C(F)(F)F)C(F)(F)F (stereo not shown) [FE-E5, 1,1,1,2,4,4,5,7,7,8,10,10,11,13,13,14,16,16,17 ,17,18,18,18-Tricosafluoro-5,8,11,14-tetrakis(trifluoromethyl)-3,6,9,12,15-pentaoxaoctadecane] |  |  | -0.81 | 3.128 |
| CNS(=O)(=O)C(F)(F)C(F)(F)C(F)(F)C(F)(F)C(F)(F)C(F)(F)F [MeFHxSA, N-Methylperfluorohexanesulfonamide] |  | 4.135 | 0.88 |  |
| CNS(=O)(=O)C(F)(F)C(F)(F)C(F)(F)C(F)(F)C(F)(F)C(F)(F)C(F)(F)C(F)(F)F [MeFOSA, N-Methylperfluorooctanesulfonamide] |  | 4.703 | 0.88 |  |
| CN(CCO)S(=O)(=O)C(F)(F)C(F)(F)C(F)(F)C(F)(F)C(F)(F)C(F)(F)C(F)(F)C(F)(F)F [MeFOSE, N-Methylperfluorooctanesulfonamidoethanol] |  |  | 1.00 | 5.909 |
| FC(F)(F)C(F)(F)C(F)(F)C(F)(F)I [PFBI, Perfluorobutyl iodide] |  | 1.939 | 0.07 |  |
| O=S(=O)(F)C(F)(F)C(F)(F)C(F)(F)C(F)(F)F [PFBSF, Perfluorobutanesulfonyl fluoride] |  | 1.278 | 0.16 |  |
| FC(F)(F)C(F)(F)C(F)(F)C(F)(F)C(F)(F)C(F)(F)C(F)(F)C(F)(F)C(F)(F)C(F)(F)I [PFDI, Perfluorodecyl iodide] |  |  | 0.07 | 3.623 |
| FC(F)(F)C(F)(F)C(F)(F)C(F)(F)C(F)(F)C(F)(F)C(F)(F)C(F)(F)C(F)(F)C(F)(F)C(F)(F)C(F)(F)F [PFDoD, Perfluorododecane] |  |  | -0.19 | 2.362 |
| FC(F)(F)C(F)(F)C(F)(F)C(F)(F)C(F)(F)C(F)(F)C(F)(F)I [PFHpI, Perfluoroheptyl iodide] |  | 2.792 | 0.07 |  |
| FC(F)(F)C(F)(F)C(F)(F)C(F)(F)C(F)(F)C(F)(F)I [PFHxI, Perfluorohexyl iodide] |  | 2.508 | 0.07 |  |
| NS(=O)(=O)C(F)(F)C(F)(F)C(F)(F)C(F)(F)C(F)(F)C(F)(F)F [PFHxSA, Perfluorohexanesulfonamide] |  | 4.189 | 0.96 |  |
| FC(F)(F)C(F)(F)C(F)(F)C(F)(F)C(F)(F)C(F)(F)C(F)(F)C(F)(F)C(F)(F)F [PFN, Perfluorononane] |  | 1.571 | -0.19 |  |
| FC(F)(F)C(F)(F)C(F)(F)C(F)(F)C(F)(F)C(F)(F)C(F)(F)C(F)(F)I [PFOI, Perfluorooctyl iodide] |  | 3.068 | 0.07 |  |
| NS(=O)(=O)C(F)(F)C(F)(F)C(F)(F)C(F)(F)C(F)(F)C(F)(F)C(F)(F)C(F)(F)F [PFOSA, Perfluorooctanesulfonamide] |  |  | 0.96 | 4.744 |
| C=Cc1ccc(C(F)(F)C(F)(F)C(F)(F)C(F)(F)C(F)(F)C(F)(F)C(F)(F)C(F)(F)F)cc1 [PFOSt, 4-(Perfluorooct-1-yl)styrene] |  |  | 0.32 | 5.645 |
| FC(F)(F)C(F)(F)C(F)(F)C(F)(F)N(C(F)(F)C(F)(F)C(F)(F)C(F)(F)F)C(F)(F)C(F)(F)C(F)(F)C(F)(F)F [PFTBA, Perfluorotributyl amine] |  | 2.302 | -0.23 |  |
| FC(F)(F)C(F)(F)C(F)(F)N(C(F)(F)C(F)(F)C(F)(F)F)C(F)(F)C(F)(F)C(F)(F)F [PFTPrA, Perfluorotripropyl amine] |  | 1.521 | -0.26 |  |
